Assay results: PMC9221018, “Sulfonamide-Derived Dithiocarbamate Gold(I) Complexes Induce the Apoptosis of Colon Cancer Cells by the Activation of Caspase 3 and Redox Imbalance” (Biomedicines, 2022)
Read-outs that look alike come from different tables or passages of the source.

Experiments:
[1] = target: T1, recombinant human carbonic anhydrase IX (Homo sapiens, UniProt Q16790); test: Carbonic anhydrase IX esterase activity assay (4-NPA); assay type: biochemical; conditions: 30 μM, 5 min incubation
T1 construct: purchased Sigma SRP6483
Protocol: The in vitro effect of metal complexes on the enzyme carbonic anhydrase IX was analyzed by monitoring conversion of 4-nitrophenyl acetate (4-NPA) to 4-nitrophenol. The tests were carried out in 96-well plates. Gold complexes (4 µL) were incubated with 4 µL recombinant human carbonic anhydrase IX (Sigma SRP6483, St Louis, MO, USA) (50 µg/mL) at 25 °C for 5 min. PBS at pH 7.35 (Sigma D1408, St Louis, MO, USA) was added to reach a final volume of 90 µL. The reaction was started by adding 10 µL 4-NPA (0.5 mM in methanol), and the absorbance at 405 nm was monitored every 30 s for 1 h using a SPECTROstar Nano (BMG Labtech, Ortenberg, Germany) multiplate reader. The results were expressed as a percentage of CA-IX activity with respect to the control. The potency of the inhibtion referred to the incubation in the presence of indisulam (E7070, N-(3-chloro-7-indolyl)-1,4-benzenedisulfonamide) (Sigma SML1225, St Louis, MO, USA), which is a specific inhibitor of carbonic anhydrase isoforms IX and XII.

Caco-2 cells [2] = test: Intracellular ROS levels, dichlorofluorescein assay; assay type: cell-based, human; conditions: Caco-2, different concentrations, 1, 3 and 24 h
Protocol: After the Caco-2 cells were seeded in a 96-well plate at a density of 4 × 10^3 cells/well, the intracellular ROS levels were determined with a dichlorofluorescein assay, following the protocol used by Quero et al.. The cells were exposed to the drug panel for 1, 3 and 24 h, and then incubated with 20 µM 2′-7′-dichlorofluorescein diacetate (DCFH-DA) (Merck KGaA, Darmstadt, Germany) in DMEM. The generation of oxidized derivative DCF was monitored by measuring the increase of the fluorescence for 1 h, at an emission wavelength of 520 nm and an excitation of 485 nm, using a FLUOstar Omega (BMG Labtech, Ortenberg, Germany) multiplate reader. The results were expressed as percentage of the fluorescence with respect to the control, considering the fluorescence intensity as a reflection of the intracellular ROS levels.

Caco-2 cells [3] = test: Propidium iodide DNA staining and cell cycle analysis; assay type: cell-based, human; conditions: complex 1 1.14 µM 48 h, complex 8 7.22 µM 72 h
Protocol: Once the cells were seeded in 25 cm^2 flasks at a density of 1 × 10^4 cells/cm^2, they were exposed, after 24 post-sendings, to the drug panel for 48 or 72 h. The cells were fixed according to the previously described methods before being stained with 50 μg/mL PI solution. The signal intensity was analysed with a Beckman Coulter Gallios (Brea, CA, USA) equipped with a blue solid diode laser (488 nm) and a red solid diode laser (635 nm), collecting fluorescence with a 620 nm-long pass filter.

Caco-2 cells [4] = test: MTT cytotoxicity assay in undifferentiated Caco-2 cells; assay type: cell-based, human
Protocol: (§1) The human Caco-2 cell line (TC7 clone) was kindly provided by Dr. Edith Brot-Laroche (Université Pierre et Marie Curie-Paris 6, UMR S 872, Les Cordeliers, France). Human epithelial fibroblast cells (NHDF-Ad, Lonza®®, Porriño, Spain) were kindly provided by Dr. Gracia Mendoza (Aragon Health Research Institute, IIS Aragón, Spain). Caco-2 cells (passages 40–70) and fibroblasts (passages 10–30) were maintained in a humidified atmosphere of 5% CO2 at 37 °C and grown in medium following the method used by Quero et al.. The Caco-2 cells were sub-cultured in 25 cm^2 plastic flasks at a density of 1.2 × 10^4 cells/cm^2, while the fibroblasts were sub-cultured on 75 cm^2 plastic flasks at a density of 1 × 10^4 cells/cm^2. The culture medium was replaced every 2 days.
(§2) The gold complexes were diluted in dimethyl sulfoxide (DMSO) as a 10 mM stock solution, and then diluted in cell culture medium at the desired concentrations.
(§3) For the cytotoxicity screening assays, Caco-2 cells were seeded in 96-well plates at a density of 4 × 10^3 cells/well. The culture medium was replaced with medium containing the drug panel 24 h post-seeding, and the cells were incubated for 24, 48 and 72 h. […] In differentiated Caco-2 and fibroblasts, culture medium containing metal gold complexes was added 15 days post-seeding, and the cells were incubated for 72 h. The antiproliferative effect was measured using an MTT assay, as previously described by Mármol et al.. The absorbance at 540/620 nm was measured using a SPECTROstar Nano (BMG Labtech, Ortenberg, Germany). In order to determine the selectivity index (SI), the IC50 value of the differentiated Caco-2 cells was divided by IC50 value in undifferentiated Caco-2, obtaining the ratio of the normal/cancerous cells’ toxicity.

[5] = tested on: differentiated Caco-2 cells; test: MTT cytotoxicity assay in differentiated Caco-2 cells (healthy cell model); assay type: cell-based, human; conditions: for decrease of cell viability: complexes at their IC50 (1 1.14 μM, 3 1.7 μM, 8 7.22 μM, 9 8.56 μM), 72 h; for IC50: treatment for 72 h
Protocol: as §1, §2, §3

Caco-2 cells [6] = test: Mitochondrial membrane potential assay (DilC1); assay type: cell-based, human; conditions: complex 1 1.14 µM 48 h, complex 8 7.22 µM 72 h
Protocol: Caco-2 cells were seeded in 75 cm^2 flasks at a density of 1 × 10^4 cells/cm^2, and the 24-h post-seeding medium was replaced with medium containing the drug panel; it was then incubated for 48 or 72 h. The cells were then washed twice and resuspended in PBS at a concentration of 10^6 cells/mL before incubation with 5 µL of 10 µM 1,1′,3,3,3′-hexamethylindodicarbo-cyanine iodide (DilC1). After 15 min of incubation at 37 °C, 400 µL PBS was added, and the fluorescence was measured by flow cytometry at an excitation wavelength of 633 nm and an emission of 658 nm with a Beckman Coulter Gallios (Brea, CA, USA) equipped with a blue solid diode laser (488 nm) and a red solid diode laser (635 nm).

caspase-3 = test: Determination of active caspase 3 by flow cytometry; assay type: cell-based, human; conditions: Caco-2; complex 1 1.14 µM 48 h, complex 8 7.22 µM 72 h
Protocol: Caco-2 cells were seeded in a 75 cm^2 flask at a density of 1 × 10^4 cells/cm^2; 24 h later, they were exposed to the drug panel for 48 or 72 h. Then, the cells were collected and processed as previously described. Finally, 50 µL of every sample was incubated with 5 µL anti-active caspase-3 (BD Pharmigen, San Diego, CA, USA, Clone C92-605) and 5 µL p53 antibody (Miltenyi, Auburn, CA, USA, Clone REA609). The fluorescence was measured by flow cytometry using a Beckman Coulter Gallios (Brea, CA, USA) equipped with a blue solid diode laser (488 nm) and a red solid diode laser (635 nm). For the caspase-3 determination, the excitation wavelength was set at 488 nm and the emission was set at 525 nm; for the p53 analysis, the excitation was set at 635 nm and the emission was set at 660 nm.

[7] = 24 h incubation, read-out: IC50 24 h
[8] = 48 h incubation, read-out: IC50 48 h
[9] = 72 h incubation, read-out: IC50 72 h
[10] = treatment for 72 h, read-out: IC50

| Compound | reduction in the esterase activity of CA [1] | intracellular ROS levels (Caco-2 cells [2]) | cell cycle distribution (Caco-2 cells [3]) | IC50 (Caco-2 cells [4]; [7]) | IC50 (Caco-2 cells [4]; [8]) | IC50 (Caco-2 cells [4]; [9]) | IC50 (Caco-2 cells [4]; [10]) | decrease of cell viability [5] | IC50 [5] | mitochondrial depolarization (cells with disturbed MMP) (Caco-2 cells [6]) | percentage of cells with active caspase-3 (caspase-3) |
| --- | --- | --- | --- | --- | --- | --- | --- | --- | --- | --- | --- |
| O=S(=O)(NC(=S)[S][Au][PH](c1ccccc1)(c1ccccc1)c1ccccc1)c1ccccc1 [Complex 1, [Au(S2CNHSO2C6H5)(PPh3)]] | 48% | time- and concentration-dependent pro-oxidant effect | significantly increased the number of cells arrested in the G1 phase | 1920 ± 130 nM | 1380 ± 210 nM | 1140 ± 250 nM | 1140 ± 250 nM | did not compromise the viability | 12.7 ± 0.47 µM | induced similar mitochondrial depolarization | increased the percentage of cells with active caspase-3 |
| [Au(S2CNHSO2-p-Me-C6H4)(IMePropargyl)] [Complex 8] | 31% | time- and concentration-dependent pro-oxidant effect | significantly increased the number of cells arrested in the G1 phase | > 50000 nM | 37400 ± 7480 nM | 7220 ± 380 nM | 7220 ± 380 nM | did not compromise the viability | 46.6 ± 3.26 µM | induced similar mitochondrial depolarization | increased the percentage of cells with active caspase-3 |
